Results from paper PMC9568543, “Bee-safe peptidomimetic acaricides achieved by comparative genomics” (Scientific Reports, 2022).
Several values for one entry are separate records, joined by “and”; a condition that tells them apart may be missing. Identical values can stand only once. Where a SMILES comes first, the peptide text is derived from it. Where no end group is shown, it is not given here. [ ]: non-standard residue; d: D form. Phe(4-NO2) = N[C@@H](Cc1ccc([N+](=O)[O-])cc1)C(=O)O; Oic = O=C(O)[C@@H]1C[C@@H]2CCCC[C@@H]2N1; Phe(4-Cl) = N[C@@H](Cc1ccc(Cl)cc1)C(=O)O; Phe(4-F) = N[C@@H](Cc1ccc(F)cc1)C(=O)O; Hyp = O=C(O)[C@@H]1C[C@@H](O)CN1; β3hF = N[C@H](CC(=O)O)Cc1ccccc1; β3hL = CC(C)C[C@H](N)CC(=O)O; β3hP = O=C(O)C[C@@H]1CCCN1

What was measured:
[1] = target: T1, Varroa mite proctolin receptor (VdProctR) (Varroa destructor, UniProt A0A7T1TE40); experiment: Receptor activity assay (aequorin luminescence), CHO cells transiently expressing the receptor, first set of ligands; type: cell-based; details: for Fold change: EC50 relative to proctolin, first set (transient expression); for potency of double-replacement analog over the corresponding single Y2 replacement analog (factor): 2338 vs 2333, 2337 vs 2329; for efficacy (maximal response) compared with proctolin: activities at 1 μM and 10 μM; for EC50: cells with transient expression of the receptor
Procedure: (§1) Approximately thirty hours after transfection, the cells were collected and preincubated with coelenterazine h for the functional assay, as previously described[30],[31],[52]. The ligands in serial dilutions were loaded into 96-well opaque plates. Cells treated with coelenterazine h were injected into each well on an Orion microplate luminometer (Berthold) luminescent plate reader. The luminescence was measured for 20 s immediately after the cell injections. Data analyses were performed to determine the accumulated luminescence value for 20 s after extraction of blank-well luminescence. […] The three biological replications were regressed for the dose–response curves with 95% confidence intervals (Table 1). For the tests of the second set of ligands, we used the cell line that stably expressed VdProctR, which were selected by Zeocin for 5 passages.

[2] = target: T1, Varroa mite proctolin receptor (VdProctR); experiment: Receptor activity assay, CHO cell line stably expressing the receptor, second set of ligands; type: cell-based; details: for Fold change: EC50 relative to proctolin, second set (stable expression)
Procedure: as §1

worker honey bee = experiment: Acute toxicity on worker honey bee by injection, 24 h; details: 50 nL of 200 µM (10 pmol), 24 h observation, n = 4
Procedure: For honey bee (Apis mellifera) assays, honey bee workers from healthy colonies were collected from Honeybee Valley of Ghent University, Belgium, and maintained in cages on sugar dough and water, under standardized conditions of 28–30 °C, 60–65% air humidity and continuous darkness. The colony were maintained with a periodic sanitary control that the honeybee hives are free of pathogens, diseases and viruses. There was no Varroa mite infection in the honeybee hives at the moment of collecting the workers for the assays. […] This was realized by injecting a volume of 50 nL of a concentration of the compound of 200 µM. Potential effects on survival were scored at 24 h after injection. […] This test was done with the following compounds were tested: 2439, 2334, 2336, Ac-2442 and controls. Subsequently, working solutions were freshly prepared prior to the bioassays by diluting the stock with distilled water to the required concentration.

[3] = test system: proctolin myotropic assays in cockroach, locust and beetle species; details: cited from earlier work

T1 sequence (A0A7T1TE40 entry or part of it): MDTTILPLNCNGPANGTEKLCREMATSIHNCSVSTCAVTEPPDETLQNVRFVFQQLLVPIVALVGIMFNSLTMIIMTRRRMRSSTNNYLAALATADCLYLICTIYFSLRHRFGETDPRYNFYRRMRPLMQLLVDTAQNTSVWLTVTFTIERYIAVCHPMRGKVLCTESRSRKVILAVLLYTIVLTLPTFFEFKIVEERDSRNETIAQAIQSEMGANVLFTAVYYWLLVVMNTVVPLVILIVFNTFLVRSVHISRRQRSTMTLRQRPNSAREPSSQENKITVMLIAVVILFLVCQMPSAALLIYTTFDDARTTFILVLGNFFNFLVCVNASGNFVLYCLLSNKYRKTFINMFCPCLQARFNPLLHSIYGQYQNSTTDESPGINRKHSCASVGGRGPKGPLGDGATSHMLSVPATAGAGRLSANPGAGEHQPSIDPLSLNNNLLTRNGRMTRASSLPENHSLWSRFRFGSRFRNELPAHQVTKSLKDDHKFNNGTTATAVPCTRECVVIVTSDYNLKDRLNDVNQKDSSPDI

## CC(C)C[C@H](NC(=O)[C@@H](Cc1ccc(O)cc1)NC(=O)[C@@H](N)CCCNC(=N)N)C(=O)N1CCC[C@H]1C(=O)N[C@H](C(=O)O)[C@@H](C)O [Analog 2329, R[dY]LPT] (H-R[dY]LPT-OH; N-terminus and C-terminus assumed)
[1]
  Fold change: 824.5

## CC(C)C[C@H](NC(=O)[C@H](Cc1ccc(F)cc1)NC(=O)[C@@H](N)CCCNC(=N)N)C(=O)N1CCC[C@H]1C(=O)N[C@H](C(=O)O)[C@@H](C)O [Analog 2438, R[Phe(4-F)]LPT] (H-R[Phe(4-F)]LPT-OH)
[2]
  EC50: 16.7 nM
  Fold change: 0.7

## CC(=O)N[C@@H](CCCNC(=N)N)C(=O)N[C@@H](Cc1ccc(Cl)cc1)C(=O)N[C@@H](CC(C)C)C(=O)N1C[C@H](O)C[C@H]1C(=O)N[C@H](C(=O)O)[C@@H](C)O [Ac-2443, Ac-R[Phe(4-Cl)]L[HyP]T] (Ac-R[Phe(4-Cl)]L[Hyp]T-OH)
[2]
  Fold change: 37.5

## CC(C)C[C@H](NC(=O)[C@@H](Cc1ccc(O)cc1)NC(=O)[C@@H](N)CCCNC(=N)N)C(=O)N1C[C@H](O)C[C@H]1C(=O)N[C@H](C(=O)O)[C@@H](C)O [Analog 2337, R[dY]L[HyP]T] (H-R[dY]L[Hyp]T-OH; N-terminus and C-terminus assumed)
[1]
  efficacy (maximal response): full efficacy
  potency of double-replacement analog over the corresponding single Y2 replacement analog (factor): 4
  Fold change: 143.5

## CC(=O)N[C@@H](CCCNC(=N)N)C(=O)N[C@@H](Cc1ccc(F)cc1)C(=O)N[C@@H](CC(C)C)C(=O)N1C[C@H](O)C[C@H]1C(=O)N[C@H](C(=O)O)[C@@H](C)O [Ac-2441, Ac-R[Phe(4-F)]L[HyP]T] (Ac-R[Phe(4-F)]L[Hyp]T-OH; N-terminus and C-terminus assumed)
[2]
  Fold change: 61.5

## CC(C)C[C@H](NC(=O)[C@H](Cc1ccc(Cl)cc1)NC(=O)[C@@H](N)CCCNC(=N)N)C(=O)N1CCC[C@H]1C(=O)N[C@H](C(=O)O)[C@@H](C)O [Analog 2440, R[Phe(4-Cl)]LPT] (H-R[Phe(4-Cl)]LPT-OH)
[2]
  EC50: 5.73 nM
  Fold change: 0.2

## CC(C)C[C@H](NC(=O)[C@H](Cc1ccc([N+](=O)[O-])cc1)NC(=O)[C@@H](N)CCCNC(=N)N)C(=O)N1CCC[C@H]1C(=O)N[C@H](C(=O)O)[C@@H](C)O [Analog 2439, R[Phe(4-NO2)]LPT] (H-R[Phe(4-NO2)]LPT-OH)
Worker honey bee
  negative effects after injection into thorax: did not show any negative effects

## CC(C)C[C@H](NC(=O)[C@H](Cc1ccc(F)cc1)NC(=O)[C@@H](N)CCCNC(=N)N)C(=O)N1C[C@H](O)C[C@H]1C(=O)N[C@H](C(=O)O)[C@@H](C)O [Analog 2441, R[Phe(4-F)]L[HyP]T] (H-R[Phe(4-F)]L[Hyp]T-OH; N-terminus and C-terminus assumed)
[2]
  Fold change: 0.7
[2]; second set, stable expression
  activity compared with proctolin: higher activity than proctolin

## RYLPTG [Analog G6, RYLPTG]
[1]
  Fold change: 4088.2
  efficacy (maximal response) compared with proctolin: higher than that of proctolin

## RGYLPT [Analog G2, RGYLPT]
[1]
  Fold change: 71648.2

## CC(C)C[C@H](NC(=O)[C@H](Cc1ccc(O)cc1)NC(=O)[C@@H](N)CCCNC(=N)N)C(=O)N1CCC[C@H]1C(=O)N[C@@H](C(=O)O)[C@H](C)O [Analog 2326, RYLP[dT]] (H-RYLP[dT]-OH; N-terminus and C-terminus assumed)
[1]
  Fold change: 7654.8

## CC(C)C[C@H](NC(=O)C[C@H](Cc1ccccc1)NC(=O)[C@@H](N)CCCNC(=N)N)C(=O)N1CCC[C@H]1C(=O)N[C@H](C(=O)O)[C@@H](C)O [Analog 2333, R[β3F]LPT] (H-R[β3hF]LPT-OH)
[1]
  Fold change: 572.0

## CC(C)C[C@@H](NC(=O)[C@H](Cc1ccc(O)cc1)NC(=O)[C@@H](N)CCCNC(=N)N)C(=O)N1CCC[C@H]1C(=O)N[C@H](C(=O)O)[C@@H](C)O [Analog 2328, RY[dL]PT] (H-RY[dL]PT-OH; N-terminus and C-terminus assumed)
[1]
  Fold change: 558.8

## CC(C)C[C@H](NC(=O)C[C@H](Cc1ccccc1)NC(=O)[C@@H](N)CCCNC(=N)N)C(=O)N1C[C@H](O)C[C@H]1C(=O)N[C@H](C(=O)O)[C@@H](C)O [Analog 2338, R[β3F]L[HyP]T] (H-R[β3hF]L[Hyp]T-OH)
[1]
  efficacy (maximal response): full efficacy
  potency of double-replacement analog over the corresponding single Y2 replacement analog (factor): 8
  Fold change: 136.1
[1]; EC50, first set of peptidomimetics
  EC50: 33 nM and 33.2 nM

## RYGLPT [Analog G3, RYGLPT]
[1]
  Fold change: 91508.8

## RYL[HyP]T [Analog 2334] (H-RYL[Hyp]T-OH; N-terminus and C-terminus assumed; SMILES CC(C)C[C@H](NC(=O)[C@H](Cc1ccc(O)cc1)NC(=O)[C@@H](N)CCCNC(=N)N)C(=O)N1C[C@H](O)C[C@H]1C(=O)N[C@H](C(=O)O)[C@@H](C)O)
[1]
  efficacy (maximal response) compared with proctolin: higher than that of proctolin

## CC(=O)N[C@@H](CCCNC(=N)N)C(=O)N[C@@H](Cc1ccc([N+](=O)[O-])cc1)C(=O)N[C@@H](CC(C)C)C(=O)N1C[C@H](O)C[C@H]1C(=O)N[C@H](C(=O)O)[C@@H](C)O [Ac-2442, Ac-R[Phe(4-NO2)]L[HyP]T] (Ac-R[Phe(4-NO2)]L[Hyp]T-OH)
Worker honey bee
  negative effects after injection into thorax: did not show any negative effects

## RYLPGT [Analog G5, RYLPGT]
[1]
  Fold change: 3095.5

## GRYLPT [Analog G1, GRYLPT]
[1]
  Fold change: 199.7

## RYL[β3P]T [Analog 2331] (H-RYL[β3hP]T-OH; N-terminus and C-terminus assumed; SMILES CC(C)C[C@H](NC(=O)[C@H](Cc1ccc(O)cc1)NC(=O)[C@@H](N)CCCNC(=N)N)C(=O)N1CCC[C@H]1CC(=O)N[C@H](C(=O)O)[C@@H](C)O)
[1]
  efficacy (maximal response) compared with proctolin: higher than that of proctolin

## RYLGPT [Analog G4, RYLGPT]
[1]
  Fold change: 5444.9

## CC(C)C[C@H](NC(=O)[C@H](Cc1ccc(O)cc1)NC(=O)[C@H](N)CCCNC(=N)N)C(=O)N1CCC[C@H]1C(=O)N[C@H](C(=O)O)[C@@H](C)O [Analog 2330, [dR]YLPT] (H-[dR]YLPT-OH; N-terminus and C-terminus assumed)
[1]
  efficacy (maximal response) compared with proctolin: higher than that of proctolin
[1]; first set of peptidomimetics, listed as R1 replacement by dR, read-out: EC50
  EC50: 5.62 nM
[3]
  activity in earlier in vivo myotropic bioassays: no activity

## CC(C)C[C@H](NC(=O)[C@H](Cc1ccc(O)cc1)NC(=O)[C@@H](N)CCCNC(=N)N)C(=O)N1CCC[C@@H]1C(=O)N[C@H](C(=O)O)[C@@H](C)O [Analog 2327, RYL[dP]T] (H-RYL[dP]T-OH; N-terminus and C-terminus assumed)
[1]
  Fold change: 1881.1

## CC(C)C[C@@H](CC(=O)N1CCC[C@H]1C(=O)N[C@H](C(=O)O)[C@@H](C)O)NC(=O)[C@H](Cc1ccc(O)cc1)NC(=O)[C@@H](N)CCCNC(=N)N [Analog 2332, RY[β3L]PT] (H-RY[β3hL]PT-OH)
[1]
  Fold change: 661.7

## CC(C)C[C@H](NC(=O)[C@@H](Cc1ccc(O)cc1)NC(=O)[C@@H](N)CCCNC(=N)N)C(=O)N1[C@H](C(=O)N[C@H](C(=O)O)[C@@H](C)O)C[C@@H]2CCCC[C@@H]21 [Analog 2340, R[dY]L[Oic]T] (H-R[dY]L[Oic]T-OH)
[1]
  Fold change: 529.7
